ChEMBL document CHEMBL1201862, “PubChem BioAssay data set” (2004)
Calls of active or inactive are those of the source.

Assays:
Prothrombin = Prothrombin (Homo sapiens, UniProt P00734); assay: Thrombin 1536 HTS Dose Response Confirmation. [Related pubchem assays: 1046 (Thrombin 1536 HTS; hits were confirmed in this assay)]; type: functional
[1] = cytotoxicity in OVCAR8 ovarian cancer cells, dose response, PAX8 project, cell-based, plate reader, dry powder samples (AID 743197); type: functional; conditions: OVCAR-8
[2] = IGROV1 ovarian cancer cell cytotoxicity, dose response, PAX8 inhibitor project, plate reader, dry powder samples (AID 743043); type: functional, cell-based; conditions: IGROV-1
Paired box protein Pax-8 = Paired box protein Pax-8 (Homo sapiens, UniProt Q06710); assay: inhibitors of PAX8-driven TPO luciferase reporter, dose response, RMG-I cells, cherry-pick (AID 687027); type: functional, cell-based;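 also: luciferase reporter driven by Pax8 target thyroperoxidase promoter measured by SteadyGlo luminescence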
[3] = NIH:OVCAR-3 ovarian cancer cell cytotoxicity, dose response, PAX8 inhibitor project, plate reader, dry powder samples (AID 743044); type: functional, cell-based
[4] = target: T1, Mannose-6-phosphate isomerase (Homo sapiens, UniProt P34949); assay: human PMI inhibitors, high substrate, primary screen, biochemical, fluorescence intensity, high mannose 6-phosphate (AID 1220)
T1 sequence (P34949 whole entry): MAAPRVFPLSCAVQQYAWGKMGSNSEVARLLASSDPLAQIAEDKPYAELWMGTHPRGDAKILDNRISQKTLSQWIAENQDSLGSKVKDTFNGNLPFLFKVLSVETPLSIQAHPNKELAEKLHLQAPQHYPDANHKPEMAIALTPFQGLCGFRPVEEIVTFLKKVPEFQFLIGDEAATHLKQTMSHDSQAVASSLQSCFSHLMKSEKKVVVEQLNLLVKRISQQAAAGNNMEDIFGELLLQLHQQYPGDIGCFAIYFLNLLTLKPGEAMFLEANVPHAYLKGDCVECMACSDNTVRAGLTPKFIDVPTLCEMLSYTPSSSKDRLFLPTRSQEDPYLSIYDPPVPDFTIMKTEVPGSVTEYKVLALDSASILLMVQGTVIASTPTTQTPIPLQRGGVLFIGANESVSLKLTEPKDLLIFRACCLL

[5] = ZM109 Env clade C HIV-1 fusion inhibitors, dose response, HeLa effector, CEM target cells, luciferase, cherry-pick (AID 652058); type: functional, cell-based
[6] = inhibitors of clade B AD8 Env fusion, dose response, cell-based, cherry-pick (AID 652062); type: functional;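 also: luciferase signal from cell-cell fusion driven by HIV-1 clade B AD8 Env; potency is for inhibitors of fusion seen as a drop in luminescence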
[7] = inhibitors of HIV Env-driven cell fusion, dose response, cherry-pick (AID 652057); type: functional, cell-based
[8] = off-target signal loss in HeLa-CEM21 co-culture – HeLa F-luc CTL cells, cherry-picked, counter-screen for HIV-1 Env fusion inhibitor project, dose response (AID 652040); type: functional, cell-based;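 also: potency for signal decrease marking cytotoxic or nonspecific inhibition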
Estrogen receptor = target: T2, Estrogen receptor (Homo sapiens, UniProt P03372);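 also: potency for inhibiting coactivator peptide recruitment to the receptor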
T2 sequence (P03372 whole entry): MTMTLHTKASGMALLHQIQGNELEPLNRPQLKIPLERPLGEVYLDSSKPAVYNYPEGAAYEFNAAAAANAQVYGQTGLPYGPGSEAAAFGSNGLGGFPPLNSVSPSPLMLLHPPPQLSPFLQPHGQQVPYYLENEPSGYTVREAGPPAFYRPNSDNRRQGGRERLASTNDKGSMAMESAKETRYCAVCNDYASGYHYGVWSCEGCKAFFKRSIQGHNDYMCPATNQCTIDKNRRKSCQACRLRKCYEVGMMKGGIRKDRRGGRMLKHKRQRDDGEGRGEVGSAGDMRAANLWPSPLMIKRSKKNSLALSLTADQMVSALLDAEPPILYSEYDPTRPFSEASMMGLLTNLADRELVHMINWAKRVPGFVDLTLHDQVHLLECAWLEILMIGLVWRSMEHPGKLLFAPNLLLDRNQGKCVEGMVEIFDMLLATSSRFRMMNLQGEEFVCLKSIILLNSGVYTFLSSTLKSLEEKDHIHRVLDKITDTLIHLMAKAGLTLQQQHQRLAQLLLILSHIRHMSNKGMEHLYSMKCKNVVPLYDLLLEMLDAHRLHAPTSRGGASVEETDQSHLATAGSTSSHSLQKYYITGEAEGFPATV

[9] = Jurkat T cell cytotoxicity, dose response, cytotoxicity control for P. falciparum gametocyte viability project, luminescence (AID 1117277); type: functional, cell-based;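 also: potency reflects loss of cellular ATP meaning fewer viable cells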
[10] = P. falciparum late gametocyte killing, dose response, luminescence (AID 1117278); type: functional, cell-based;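 also: gametocytes exposed to compound for 24 hours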
[11] = target: T3, COUP transcription factor 2 (Homo sapiens, UniProt P24468); assay: Luminescence-based cell-based high throughput dose response assay to identify inhibitors of COUP-TFII (NR2F2).; type: functional;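 also: HEK293 cells transiently cotransfected with COUP-TFII expression vector and reporter; luciferase reporter luminescence driven by COUP-TFII from the pX2-168 reporter plasmid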
T3 sequence (P24468 whole entry): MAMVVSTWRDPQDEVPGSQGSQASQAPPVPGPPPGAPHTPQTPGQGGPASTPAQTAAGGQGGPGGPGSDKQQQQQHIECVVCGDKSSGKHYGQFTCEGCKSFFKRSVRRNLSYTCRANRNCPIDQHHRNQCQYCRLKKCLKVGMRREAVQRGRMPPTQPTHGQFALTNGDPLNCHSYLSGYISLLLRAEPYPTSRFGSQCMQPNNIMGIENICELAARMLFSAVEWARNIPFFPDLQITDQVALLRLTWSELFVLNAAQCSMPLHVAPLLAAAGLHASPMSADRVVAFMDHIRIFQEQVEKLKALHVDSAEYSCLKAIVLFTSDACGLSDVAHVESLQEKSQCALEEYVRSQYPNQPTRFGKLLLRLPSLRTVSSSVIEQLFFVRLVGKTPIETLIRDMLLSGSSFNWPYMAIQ

Protein skinhead-1 = target: T4, Protein skinhead-1 (Caenorhabditis elegans, UniProt P34707); type: functional
T4 sequence (P34707 whole entry): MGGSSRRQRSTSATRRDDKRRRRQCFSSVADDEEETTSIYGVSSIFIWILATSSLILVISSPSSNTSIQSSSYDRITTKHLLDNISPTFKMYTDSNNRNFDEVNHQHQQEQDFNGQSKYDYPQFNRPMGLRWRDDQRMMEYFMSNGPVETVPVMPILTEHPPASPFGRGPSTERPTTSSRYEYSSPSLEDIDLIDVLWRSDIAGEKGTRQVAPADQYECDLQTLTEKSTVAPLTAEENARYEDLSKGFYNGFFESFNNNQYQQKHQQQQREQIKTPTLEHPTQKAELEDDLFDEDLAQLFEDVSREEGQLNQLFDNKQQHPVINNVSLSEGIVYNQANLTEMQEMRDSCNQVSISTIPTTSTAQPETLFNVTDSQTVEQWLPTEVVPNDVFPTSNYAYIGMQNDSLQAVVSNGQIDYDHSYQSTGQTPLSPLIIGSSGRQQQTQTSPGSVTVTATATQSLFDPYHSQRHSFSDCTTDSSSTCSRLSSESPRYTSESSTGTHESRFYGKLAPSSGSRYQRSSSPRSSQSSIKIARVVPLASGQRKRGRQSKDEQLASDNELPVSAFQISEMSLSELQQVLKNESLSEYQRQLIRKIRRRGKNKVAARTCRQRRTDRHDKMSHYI

[12] = target: T5, Corticotropin-releasing factor receptor 2/Corticotropin-releasing factor-binding protein (Homo sapiens, UniProt P24387+Q13324); assay: activators of CRF receptor 2 with binding protein – uHTS hits, confirmation (AID 602473); type: functional; conditions: read-out: EC50_Mean
T5 sequence (Q13324 whole entry): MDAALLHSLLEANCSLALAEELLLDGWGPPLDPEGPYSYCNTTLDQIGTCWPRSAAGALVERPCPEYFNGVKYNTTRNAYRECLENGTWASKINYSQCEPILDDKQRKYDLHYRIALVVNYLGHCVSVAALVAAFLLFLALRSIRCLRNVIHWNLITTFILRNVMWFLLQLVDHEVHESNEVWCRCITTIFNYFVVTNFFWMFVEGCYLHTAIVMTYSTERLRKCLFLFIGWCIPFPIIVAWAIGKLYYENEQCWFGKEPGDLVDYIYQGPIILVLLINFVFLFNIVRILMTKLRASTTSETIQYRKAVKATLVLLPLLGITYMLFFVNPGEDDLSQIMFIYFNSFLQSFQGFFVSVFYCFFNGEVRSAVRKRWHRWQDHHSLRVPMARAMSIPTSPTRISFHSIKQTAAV
T5 sequence (P24387 whole entry): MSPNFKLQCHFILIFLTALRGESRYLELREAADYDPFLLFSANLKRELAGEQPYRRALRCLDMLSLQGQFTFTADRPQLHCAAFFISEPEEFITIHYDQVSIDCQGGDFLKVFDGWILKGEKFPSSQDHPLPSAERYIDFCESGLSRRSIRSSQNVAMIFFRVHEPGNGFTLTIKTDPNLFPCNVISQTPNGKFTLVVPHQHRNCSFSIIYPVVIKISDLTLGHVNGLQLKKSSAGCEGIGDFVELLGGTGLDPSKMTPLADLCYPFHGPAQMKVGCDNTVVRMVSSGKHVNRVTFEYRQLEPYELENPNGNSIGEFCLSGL

[13] = target: T5, Corticotropin-releasing factor receptor 2/Corticotropin-releasing factor-binding protein; assay: Dose Response confirmation of uHTS hits for small molecule antagonists of the CRF-binding protein and CRF-R2 receptor complex.; type: functional; conditions: read-out: IC50_Mean
[14] = cytotoxicity in HEK-293T cells, dose response, cytotoxicity control for BCR NF-kB inhibitor project, luminescence, B-cell screen hits (AID 489021); type: functional, cell-based;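 also: HEK-293T cells carrying an NF-kB luciferase reporter; cells exposed to compound for about 14 hours before viability readout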
[15] = Shn3 3'UTR reporter inhibitors, dose response, cell-based, Clone20 osteoblasts, firefly luciferase, cherry-picked (AID 624132); type: functional;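 also: firefly luciferase luminescence from reporter carrying the Shn3 3'UTR in osteoblasts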
[16] = HepG2 cell cytotoxicity, dose response, cytotoxicity control for Shn3 inhibitor project, CellTiter-Glo, cherry-picked (AID 624134); type: functional, cell-based
[17] = HEp-2 cell cytotoxicity, dose response, cytotoxicity control for RSV inhibitor project, HTS (AID 2410); type: functional; conditions: human respiratory syncytial virus

Chain of Paired box protein Pax-8 (Q06710 whole entry): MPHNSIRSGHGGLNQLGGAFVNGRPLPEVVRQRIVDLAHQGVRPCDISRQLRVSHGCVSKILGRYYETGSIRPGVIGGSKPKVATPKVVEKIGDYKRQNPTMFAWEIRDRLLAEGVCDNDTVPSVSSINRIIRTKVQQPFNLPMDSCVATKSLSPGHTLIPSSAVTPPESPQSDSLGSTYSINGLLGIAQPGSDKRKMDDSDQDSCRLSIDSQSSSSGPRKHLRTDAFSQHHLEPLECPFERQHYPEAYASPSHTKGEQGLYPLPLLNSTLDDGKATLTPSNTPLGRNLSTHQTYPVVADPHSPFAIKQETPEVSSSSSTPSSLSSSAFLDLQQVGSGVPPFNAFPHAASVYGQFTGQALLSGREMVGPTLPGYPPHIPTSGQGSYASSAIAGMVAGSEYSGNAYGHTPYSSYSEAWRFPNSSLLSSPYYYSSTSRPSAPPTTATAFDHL

SMILES: COCC(=O)n1nc(-c2ccccc2)nc1NCc1cccs1
- IC50 (Prothrombin): 0.467 µM (active)

SMILES: C[C@@H]1CCCCO[C@@H](CN(C)Cc2ccc(C(F)(F)F)cc2)[C@H](C)CN([C@@H](C)CO)C(=O)c2cc(NC(=O)NC3CCCCC3)ccc2O1
- AC50 [1]: 37.5 µM (active)
- AC50 [2]: 50.9 µM (active)
- AC50 (Paired box protein Pax-8): 8.39 µM (active)
- AC50 [3]: 45.2 µM (active)

SMILES: CCC(C)N1C(=O)NC(=O)C2(Cc3c(ccc4ccccc34)N(C)C2)C1=O (stereo unspecified)
- IC50 [4]: > 50 µM (not active)

SMILES: CC1(C)C2CCC1(C)C(OCCNCCOC(=O)Nc1ccccc1)C2 (stereo unspecified)
- AC50 [5]: 8.26 µM (active)
- AC50 [6]: 27.5 µM (active)
- AC50 [7]: 8.49 µM (active)
- AC50 [8]: 27.6 µM (active)

SMILES: CC(=O)NCCOC(=O)Nc1ccncc1
- IC50 (Estrogen receptor): > 50 µM (not active)

SMILES: Cc1onc(-c2ccccc2Cl)c1C(=O)NCCN1CCOCC1
- IC50 [9]: > 83.4 µM (inactive)
- IC50 [10]: > 109 µM (inactive)

SMILES: Cc1ccc(-n2nc3c(=O)n(C(C)C(=O)NCCC4=CCCCC4)nc(C)c3c2C)cc1 (stereo unspecified)
- IC50 [11]: 6.62 µM (active)

SMILES: CC(Cc1ccccn1)NC(=O)CCc1nnc(C2CCCCC2)o1 (stereo unspecified)
- IC50 [9]: > 83.3 µM (inactive)
- IC50 [10]: > 109 µM (inactive)

SMILES: Cn1nnc2cc(C(=O)NCCC3=CCCCC3)ccc21
- IC50 (Protein skinhead-1): > 100 µM (inactive)
- EC50 [12]: > 53 µM (inactive)
- IC50 [13]: > 47.1 µM (inactive)

SMILES: NC(=O)c1c(NC(=O)Cn2nc(C(=O)O)c3ccccc3c2=O)sc2c1CCCC2
- IC50 (Prothrombin): 24.3 µM (active)

SMILES: O=C(c1ccccc1F)N1CC(=O)N2[C@@H](CO)[C@@H](c3ccc(C#Cc4ccc(F)cc4)cc3)[C@@H]2C1
- AC50 [1]: 41.1 µM (active)
- AC50 [2]: 19.2 µM (active)
- AC50 (Paired box protein Pax-8): 5.77 µM (active)
- AC50 [3]: 8.76 µM (active)

SMILES: COc1ccc(OC)c(NS(=O)(=O)c2ccc(NC(C)=O)cc2)c1
- IC50 [9]: > 83.3 µM (inactive)
- IC50 [10]: > 109 µM (inactive)

SMILES: COC(=O)C1=C(c2ccc(-c3ccccc3)c(F)c2)C[C@@H]2CC[C@H]1N2C(=O)N1CCCC1
- IC50 [14]: > 80 µM (inactive)
- IC50 [11]: 8.17 µM (active)
- AC50 [15]: 6.06 µM (active)
- AC50 [16]: 6.77 µM (active)

SMILES: O=C(CCC(=O)N1CCN(S(=O)(=O)c2ccc3ccccc3c2)CC1)Nc1cc(Cl)cc(Cl)c1
- CC50 [17]: > 6.25 µM (active)
- AC50 [5]: 4.28 µM (active)
- AC50 [6]: 14.2 µM (active)
- AC50 [7]: 3.61 µM (active)
- AC50 [8]: 6.16 µM (active)

SMILES: CC1(C(=O)N/N=C/c2cc3c(cc2Br)OCO3)CC1(Br)Br (stereo unspecified)
- AC50 [5]: 2.59 µM (active)
- AC50 [6]: 15.2 µM (active)
- AC50 [7]: 3.9 µM (active)
- AC50 [8]: 9.4 µM (active)

SMILES: Cc1ccc(Cl)cc1NS(=O)(=O)c1c(C)[nH]c(=O)[nH]c1=O
- IC50 (Prothrombin): > 50 µM (not active)

SMILES: CS(=O)(=O)Nc1cccc(C(=O)CC2(O)C(=O)Nc3ccc(Br)cc32)c1 (stereo unspecified)
- IC50 (Prothrombin): 0.525 µM (active)

SMILES: OCC(CO)(CO)/N=C/c1c(O)ccc2ccccc12
- IC50 [4]: 38.6 µM (active)

SMILES: COc1ccccc1NC(=O)CSc1nnc(-c2ccc(NC(C)=O)cc2)n1C
- IC50 [9]: > 83.3 µM (inactive)
- IC50 [10]: > 109 µM (inactive)

SMILES: S=C(Nc1ccc2c[nH]nc2c1)Nc1ccc(Cl)cc1Cl
- IC50 [4]: > 50 µM (not active)

SMILES: Cc1ccc(C(=O)NC(C)C(c2cccs2)N2CCCC2)s1 (stereo unspecified)
- IC50 [9]: > 83.3 µM (inactive)
- IC50 (Prothrombin): > 50 µM (not active)
- IC50 [10]: > 109 µM (inactive)

SMILES: C[C@@H]1CCCCO[C@@H](CN(C)Cc2ccc(Cl)c(Cl)c2)[C@H](C)CN([C@H](C)CO)C(=O)c2cc(NS(=O)(=O)c3ccc(Cl)cc3)ccc2O1
- AC50 [1]: > 70 µM (inactive)
- AC50 [2]: 59.2 µM (active)
- AC50 (Paired box protein Pax-8): 8.68 µM (active)
